{
  "source": "paper PMC4431592",
  "about": "(Journal of medicinal chemistry, 2015)",
  "key": {"HCV RNA replication": {"tested_on": "HCV RNA replication", "assay": "HCV RNA replication by luciferase assay after electroporation", "type": "cell-based, hepatitis C virus", "settings": "72 hours postelectroporation, treated daily"}, "EGFR": {"molecular_target": "EGFR (Homo sapiens, UniProt P00533)", "sequence (P00533 25-1210)": "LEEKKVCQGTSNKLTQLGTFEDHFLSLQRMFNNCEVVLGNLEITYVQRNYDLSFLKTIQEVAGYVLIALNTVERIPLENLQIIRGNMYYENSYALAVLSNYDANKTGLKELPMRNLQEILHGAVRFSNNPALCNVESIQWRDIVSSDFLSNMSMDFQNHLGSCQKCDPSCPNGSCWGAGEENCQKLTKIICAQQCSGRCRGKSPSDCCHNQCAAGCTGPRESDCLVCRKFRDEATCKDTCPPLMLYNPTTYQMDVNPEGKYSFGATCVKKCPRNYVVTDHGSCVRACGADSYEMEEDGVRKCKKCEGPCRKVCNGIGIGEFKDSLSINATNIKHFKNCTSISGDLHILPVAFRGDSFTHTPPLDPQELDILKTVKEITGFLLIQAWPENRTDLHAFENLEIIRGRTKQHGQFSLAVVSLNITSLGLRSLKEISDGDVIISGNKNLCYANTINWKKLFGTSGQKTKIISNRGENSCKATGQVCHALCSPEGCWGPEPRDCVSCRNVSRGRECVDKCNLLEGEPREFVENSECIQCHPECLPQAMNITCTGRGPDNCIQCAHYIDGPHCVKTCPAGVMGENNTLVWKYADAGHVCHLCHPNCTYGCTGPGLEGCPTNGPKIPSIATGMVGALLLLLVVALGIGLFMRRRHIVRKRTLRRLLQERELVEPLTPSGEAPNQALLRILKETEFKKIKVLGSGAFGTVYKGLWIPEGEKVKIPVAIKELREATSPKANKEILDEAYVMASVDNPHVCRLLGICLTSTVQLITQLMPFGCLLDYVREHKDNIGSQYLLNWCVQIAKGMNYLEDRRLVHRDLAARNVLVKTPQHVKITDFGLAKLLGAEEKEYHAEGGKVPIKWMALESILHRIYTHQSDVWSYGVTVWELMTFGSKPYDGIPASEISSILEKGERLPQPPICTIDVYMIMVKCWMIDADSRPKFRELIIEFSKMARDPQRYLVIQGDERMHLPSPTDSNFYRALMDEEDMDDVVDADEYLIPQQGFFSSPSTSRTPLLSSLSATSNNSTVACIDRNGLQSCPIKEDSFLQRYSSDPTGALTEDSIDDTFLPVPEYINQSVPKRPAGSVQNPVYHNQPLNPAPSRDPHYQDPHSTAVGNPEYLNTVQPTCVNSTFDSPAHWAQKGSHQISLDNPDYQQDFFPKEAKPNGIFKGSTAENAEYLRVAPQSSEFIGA", "assay": "EGFR binding / anti-EGFR activity"}, "GAK [1]": {"molecular_target": "T1, GAK (Homo sapiens, UniProt O14976)", "T1 sequence (O14976 1-1311)": "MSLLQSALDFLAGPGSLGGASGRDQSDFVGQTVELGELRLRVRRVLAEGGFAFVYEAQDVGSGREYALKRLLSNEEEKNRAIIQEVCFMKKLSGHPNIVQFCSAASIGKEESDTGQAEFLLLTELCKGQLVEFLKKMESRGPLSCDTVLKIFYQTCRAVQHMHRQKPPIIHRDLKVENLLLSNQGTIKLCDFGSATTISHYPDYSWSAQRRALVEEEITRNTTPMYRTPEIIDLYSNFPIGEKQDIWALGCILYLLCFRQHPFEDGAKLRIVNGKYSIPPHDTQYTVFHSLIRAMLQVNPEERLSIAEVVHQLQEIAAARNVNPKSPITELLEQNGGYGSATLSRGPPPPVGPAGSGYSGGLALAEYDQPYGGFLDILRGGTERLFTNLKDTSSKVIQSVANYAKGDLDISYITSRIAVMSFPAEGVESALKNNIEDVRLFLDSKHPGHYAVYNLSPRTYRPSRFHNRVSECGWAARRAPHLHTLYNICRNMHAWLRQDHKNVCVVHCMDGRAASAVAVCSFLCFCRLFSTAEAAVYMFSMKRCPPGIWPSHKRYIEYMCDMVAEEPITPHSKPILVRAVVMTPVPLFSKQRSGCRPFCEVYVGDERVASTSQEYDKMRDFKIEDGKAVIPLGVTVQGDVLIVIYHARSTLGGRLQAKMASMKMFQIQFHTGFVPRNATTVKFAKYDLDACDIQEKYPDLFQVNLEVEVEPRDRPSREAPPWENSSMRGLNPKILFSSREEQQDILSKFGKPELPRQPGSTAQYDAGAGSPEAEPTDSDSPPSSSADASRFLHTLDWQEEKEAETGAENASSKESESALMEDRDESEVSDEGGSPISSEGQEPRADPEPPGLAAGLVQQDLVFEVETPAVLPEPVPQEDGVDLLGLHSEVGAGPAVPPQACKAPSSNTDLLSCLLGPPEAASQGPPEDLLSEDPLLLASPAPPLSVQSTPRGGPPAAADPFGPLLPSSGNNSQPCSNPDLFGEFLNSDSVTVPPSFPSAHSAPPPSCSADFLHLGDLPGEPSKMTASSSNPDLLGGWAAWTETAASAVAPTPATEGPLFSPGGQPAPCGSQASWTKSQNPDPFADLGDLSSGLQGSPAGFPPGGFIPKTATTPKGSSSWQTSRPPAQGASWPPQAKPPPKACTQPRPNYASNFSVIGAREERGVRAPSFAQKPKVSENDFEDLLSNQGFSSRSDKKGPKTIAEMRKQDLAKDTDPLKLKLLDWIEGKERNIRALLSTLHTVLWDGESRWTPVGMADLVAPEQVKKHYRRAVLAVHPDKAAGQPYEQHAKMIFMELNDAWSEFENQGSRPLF", "assay": "KINOMEscan active site-directed competition binding assay, GAK"}, "AP2M1 phosphorylation": {"tested_on": "AP2M1 phosphorylation", "assay": "AP2M1 phosphorylation by Western analysis in Huh-7.5 cells", "type": "cell-based, human", "settings": "calyculin A, versus DMSO control"}, "Huh-7.5 cells": {"tested_on": "Huh-7.5 cells", "assay": "Cellular viability, alamarBlue-based assay", "settings": "HCVpp entry assay, 4 hour treatment"}, "GAK [2]": {"molecular_target": "T1, GAK", "settings": "cited from earlier work"}},
  "data": [
    {"smiles": "COc1cc(-c2cnc3c(N4CCOCC4)snc3c2)ccc1N", "note": "[Compound 12i, 2-Methoxy-4-(3-morpholinoisothiazolo[4,3-b]pyridin-6-yl)aniline]", "values": [
      {"measurement": "effect on HCV RNA replication (in words)", "setting": "HCV RNA replication", "result": "did not affect HCV RNA replication"},
      {"measurement": "anti-EGFR activity (in words)", "setting": "EGFR", "result": "lack anti-EGFR activity"}
    ]},
    {"smiles": "COc1ccc(-c2cnc3c(N4CCOCC4)snc3c2)c(OC)c1", "note": "[Compound 12c, 4-(6-(2,4-Dimethoxyphenyl)isothiazolo[4,3-b]pyridin-3-yl)morpholine]", "values": [
      {"measurement": "GAK affinity (in words)", "setting": "GAK [1]", "result": "lacks any affinity"}
    ]},
    {"smiles": "c1csc(-c2cnc3c(N4CCOCC4)snc3c2)c1", "note": "[Compound 12a, 4-(6-(Thiophen-2-yl)isothiazolo[4,3-b]pyridin-3-yl)morpholine]", "values": [
      {"measurement": "GAK affinity (in words)", "setting": "GAK [1]", "result": "equipotent"}
    ]},
    {"smiles": "COc1cc(-c2cnc3c(N4CCOCC4)snc3c2)cc(OC)c1OC", "note": "[Compound 12g, 4-(6-(3,4,5-Trimethoxyphenyl)isothiazolo[4,3-b]pyridin-3-yl)morpholine]", "values": [
      {"measurement": "p-AP2M1 to AP2M1 ratio (in words)", "setting": "AP2M1 phosphorylation", "result": "reduced"},
      {"measurement": "effect on cellular viability (in words)", "setting": "Huh-7.5 cells", "result": "minimal effect on cellular viability"},
      {"measurement": "effect on HCV RNA replication (in words)", "setting": "HCV RNA replication", "result": "did not affect HCV RNA replication"},
      {"measurement": "anti-EGFR activity (in words)", "setting": "EGFR", "result": "lack anti-EGFR activity"}
    ]},
    {"smiles": "COc1ccc(-c2cnc3c(NCCc4ccccc4)snc3c2)cc1OC", "note": "[Compound 13k, 6-(3,4-dimethoxyphenyl)-N-phenethylisothiazolo[4,3-b]pyridin-3-amine]", "values": [
      {"measurement": "GAK affinity (in words)", "setting": "GAK [1]", "result": "completely lacking GAK affinity"}
    ]},
    {"smiles": "CCOc1cc2ncc(C#N)c(Nc3ccc(F)c(Cl)c3)c2cc1NC(=O)/C=C/CN(C)C", "note": "[pelitinib]", "values": [
      {"measurement": "Kd (in words)", "setting": "GAK [2]", "result": "low nanomolar range"}
    ]},
    {"smiles": "c1cc2c(cc1-c1cnc3c(N4CCOCC4)snc3c1)OCO2", "note": "[Compound 12f, 4-(6-(Benzo[d][1,3]dioxol-5-yl)isothiazolo[4,3-b]pyridin-3-yl)morpholine]", "values": [
      {"measurement": "GAK affinity (in words)", "setting": "GAK [1]", "result": "completely inactive"}
    ]}
  ]
}
